The structures appear in SMILES notation. In brackets after ≈: the same amount, converted by molar mass.

For assay [1], the system named is Bacillus subtilis 168CA. As to the kind of experiment: Minimum Inhibitory Concentration (MIC) testing, broth microdilution, Bacillus subtilis. It counts as cell-based. The conditions noted are these: Bacillus subtilis 168CA; for MIC: read-out: Bacillus subtilis MICs Activity. An outline of the steps: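 Broth microdilution followed NCCLS M7-A5, in rich broth such as Mueller Hinton, inoculum at OD 0.09 diluted 1:100, compounds in 1.6% DMSO before inoculum. After 16–20 h at 37 °C, MIC was the lowest concentration without visible growth. Score A: ≦8 μg/ml, B: 16–64 μg/ml, C: >64 μg/ml.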

In assay [2] the test system is Staphylococcus aureus ATCC29213. As to the kind of experiment: Minimum Inhibitory Concentration (MIC) testing, broth microdilution, Staphylococcus aureus. It counts as cell-based. The settings on record: Staphylococcus aureus ATCC29213; for MIC: read-out: Staphylococcus aureus MICs Activity. Put shortly: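 Broth microdilution per NCCLS M7-A5 in Mueller Hinton broth, with compound in 1.6% DMSO and inoculum at OD 0.09 diluted 1:100. Plates incubated 16–20 h at 37°C. MIC is the lowest concentration with no visible growth; scored A ≤8, B 16–64, C >64 μg/ml.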
In general terms: In broth dilution the organism is exposed to a series of concentrations in liquid medium.

In the case of `NC(=O)c1c(F)ccc(OCc2nc3cc(C4CCCC4)ccc3s2)c1F` [Example 317], the MIC in assay [1] and in assay [2] was < 8 µg/mL each time.

Regarding `COc1ccc(-c2nc(COc3ccc(F)c(C(N)=O)c3F)sc2-c2cccc(N)c2)cc1` [Example 284, 2,6-Difluoro-3-[5-(3-amino-phenyl)-4-(4-methoxy-phenyl)-thiazol-2-ylmethoxy]-benzamide], the MIC in assay [1] and in assay [2] was < 8 µg/mL each time.

`C=CCc1ccc2sc(COc3ccc(F)c(C(N)=O)c3F)nc2c1` [Example 126, 3-(5-Allyl-benzothiazol-2-ylmethoxy)-2,6-difluoro-benzamide]: the MIC in assay [1] and in assay [2] was < 8 µg/mL each time.

With `NC(=O)c1c(F)ccc(OCc2nc(-c3ccc4c(c3)OCO4)no2)c1F` [Example 322, 3-(3-Benzo[1,3]dioxol-5-yl-[1,2,4]oxadiazol-5-ylmethoxy)-2,6-difluoro-benzamide], the MIC in assay [1] and in assay [2] was < 8 µg/mL each time.

Take `COc1ccc(-c2nc(COc3ccc(F)c(C(N)=O)c3F)sc2-c2cccc(OC)c2)cc1` [Example 281, 2,6-Difluoro-3-[5-(3-methoxy-phenyl)-4-(4-methoxy-phenyl)-thiazol-2-ylmethoxy]-benzamide]: the MIC in assay [1] and in assay [2] was < 8 µg/mL in each case.

Turning to `CC(=O)Oc1cccc(COc2cccc(C(N)=O)c2)c1` [Example 172, 3-[3-(Aminocarbonyl)phenoxy]methylphenyl acetate], the MIC in assay [1] and in assay [2] was > 64 µg/mL throughout.

Consider `CC/C=C\CCCCOc1ccc(F)c(C(N)=O)c1` [Example 73, 2-Fluoro-5-[(Z)-5-octenyloxy]benzenecarboxamide], for which the MIC in assay [1] and in assay [2] was < 8 µg/mL in each case.

On to `Cc1ccc(-c2nc(COc3ccc(F)c(C(N)=O)c3F)co2)cc1` [Example 295, 2,6-Difluoro-3-(2-p-tolyl-oxazol-4-ylmethoxy)-benzamide], for which the MIC in assay [1] and in assay [2] was < 8 µg/mL in each case.

Take `CCCCCCOc1ccc(F)c(C(N)=O)c1F` [Example 81, 2,6-Difluoro-3-(hexyloxy)benzenecarboxamide]: the MIC in assay [1] and in assay [2] was < 8 µg/mL each time.

With `NC(=O)c1cccc(OCCCCO)c1` [Example 42, 3-(4-Hydroxybutoxy)benzenecarboxamide], the MIC in assay [1] and in assay [2] was 16 to 64 µg/mL (≈ 76.5 to 306 µM) throughout.

Consider `NC(=O)c1c(F)ccc(OCc2nc(-c3ccc(C(F)(F)F)cc3)no2)c1F` [Example 243, 2,6-Difluoro-3-(3-[4-(trifluoromethyl)phenyl]-1,2,4-oxadiazol-5-ylmethoxy)benzenecarboxamide], for which the MIC in assay [1] and in assay [2] was < 8 µg/mL in each case.

Consider `CCCCOC(=O)COc1ccc(F)c(C(N)=O)c1F` [Example 83, Butyl 2-[3-(aminocarbonyl)-2,4-difluorophenoxy]acetate], for which the MIC in assay [1] is < 8 µg/mL; in assay [2], 16 to 64 µg/mL (≈ 55.7 to 223 µM).

As to `NC(=O)c1c(F)ccc(OCc2nc3cc(Oc4ccccc4)ccc3s2)c1F` [Example 327, 2,6-Difluoro-3-(5-phenoxy-benzothiazol-2-ylmethoxy)-benzamide], the MIC in assay [1] and in assay [2] was < 8 µg/mL in each case.

Take `NC(=O)c1c(F)ccc(OCc2nc(-c3ccc(O)cc3)co2)c1F` [Example 312, 2,6-Difluoro-3-[4-(4-hydroxy-phenyl)-oxazol-2-ylmethoxy]-benzamide]: the MIC was 16 to 64 µg/mL (≈ 46.2 to 185 µM) in assay [1] and < 8 µg/mL in assay [2].

In the case of `NC(=O)c1c(F)ccc(OCc2nc(-c3ccc(Cl)cc3)c(Br)s2)c1F` [Example 159, 3-[5-Bromo-4-(4-chloro-phenyl)-thiazol-2-ylmethoxy]-2,6-difluoro-benzamide], the MIC in assay [1] and in assay [2] was < 8 µg/mL in each case.

For `COc1ccc(-c2nc(COc3ccc(F)c(C(N)=O)c3F)sc2-c2ccc(N)cc2)cc1` [Example 285, 2,6-Difluoro-3-[5-(4-amino-phenyl)-4-(4-methoxy-phenyl)-thiazol-2-ylmethoxy]-benzamide], the MIC in assay [1] and in assay [2] was < 8 µg/mL in each case.

Turning to `Cc1cc(COc2ccc(F)c(C(N)=O)c2F)ccc1F` [Example 147, 2,6-Difluoro-3-(4-fluoro-3-methyl-benzyloxy)-benzamide], the MIC in assay [1] and in assay [2] was 16 to 64 µg/mL (≈ 54.2 to 217 µM) throughout.

With `NC(=O)c1c(F)ccc(OCc2nc(-c3c(Cl)cccc3Cl)no2)c1F` [Example 260, 3-[3-(2,6-Dichlorophenyl)-1,2,4-oxadiazol-5-yl]methoxy-2,6-difluorobenzenecarboxamide], the MIC in assay [1] and in assay [2] was < 8 µg/mL in each case.

As for `CCC(C)CCOc1cccc(C(N)=O)c1` (centres unmarked) [Example 60, 3-[(3-Methylpentyl)oxy]benzenecarboxamide], the MIC in assay [1] and in assay [2] was 16 to 64 µg/mL (≈ 72.3 to 289 µM) in each case.

On to `COc1ccc(-c2nc(COc3ccc(F)c(C(N)=O)c3F)sc2-c2nccs2)cc1` [Example 155, 2,6-Difluoro-3-[4′-(4-methoxy-phenyl)-[2,5′]bithiazolyl-2′-ylmethoxy]-benzamide], for which the MIC in assay [1] and in assay [2] was < 8 µg/mL throughout.

Take `NC(=O)c1c(F)ccc(OCc2csc(Nc3ccccc3)n2)c1F` [Example 237, 3-[(2-Anilino-1,3-thiazol-4-yl)methoxy]-2,6-difluorobenzenecarboxamide]: the MIC in assay [1] and in assay [2] was 16 to 64 µg/mL (≈ 44.3 to 177 µM) throughout.

Consider `COc1ccc(-c2nc(COc3ccc(F)c(C(N)=O)c3F)sc2C#N)cc1` [Example 289, 3-[5-Cyano-4-(4-methoxy-phenyl)-thiazol-2-ylmethoxy]-2,6-difluoro-benzamide], for which the MIC in assay [1] and in assay [2] was < 8 µg/mL in each case.

As for `COc1ccc(-c2nc(COc3ccc(F)c(C(N)=O)c3F)co2)cc1` [Example 293, 2,6-Difluoro-3-[2-(4-methoxy-phenyl)-oxazol-4-ylmethoxy]-benzamide], the MIC in assay [1] and in assay [2] was < 8 µg/mL throughout.

Consider `Cc1cc(COc2ccc(F)c(C(N)=O)c2F)no1` [Example 182, 2,6-Difluoro-3-[(5-methyl-3-isoxazolyl)methoxy]benzenecarboxamide], for which the MIC in assay [1] and in assay [2] was > 64 µg/mL throughout.

On to `NC(=O)c1c(F)ccc(OCc2nc(-c3ccc(F)cc3)no2)c1F` [Example 245, 2,6-Difluoro-3-[3-(4-fluorophenyl)-1,2,4-oxadiazol-5-yl]methoxybenzenecarboxamide], for which the MIC in assay [1] and in assay [2] was < 8 µg/mL throughout.

As to `Cn1ccnc1COc1ccc(F)c(C(N)=O)c1F` [Example 194, 2,6-Difluoro-3-[(1-methyl-1H-imidazol-2-yl)methoxy]benzenecarboxamide], the MIC in assay [1] and in assay [2] was > 64 µg/mL each time.

With `Cl.NC(=O)c1c(F)ccc(OCc2nc(-c3ccc(N)cc3)no2)c1F` [Example 251, 3-[3-(4-Aminophenyl)-1,2,4-oxadiazol-5-yl]methoxy-2,6-difluorobenzenecarboxamide hydrochloride salt], the MIC in assay [1] and in assay [2] was 16 to 64 µg/mL in each case.

On to `CCCCCCCCCCCOc1ccc(F)c(C(N)=O)c1` [Example 72, 2-Fluoro-5-(undecyloxy)benzenecarboxamide], for which the MIC in assay [1] and in assay [2] was 16 to 64 µg/mL (≈ 51.7 to 207 µM) in each case.

As for `Cc1ccccc1-c1nc(COc2ccc(F)c(C(N)=O)c2F)sc1Br` [Example 130], the MIC in assay [1] and in assay [2] was < 8 µg/mL in each case.

As for `NC(=O)c1c(F)ccc(OCc2nc(-c3ccccc3)cs2)c1F` [Example 235, 2,6-Difluoro-3-[(4-phenyl-1,3-thiazol-2-yl)methoxy]benzenecarboxamide], the MIC in assay [1] and in assay [2] was < 8 µg/mL throughout.

`NC(=O)c1c(F)ccc(OCc2nc(-c3ccc(OC(F)(F)F)cc3)no2)c1F` [Example 292]: the MIC in assay [1] and in assay [2] was < 8 µg/mL in each case.

Take `Cc1cccc(COc2cccc(C(N)=O)c2)c1` [Example 29, 3-[(3-Methylbenzyl)oxy]benzenecarboxamide]: the MIC in assay [1] and in assay [2] was 16 to 64 µg/mL (≈ 66.3 to 265 µM) throughout.

`NC(=O)c1c(F)ccc(OCc2nc(Cc3ccccc3)no2)c1F` [Example 266, 3-[(3-Benzyl-1,2,4-oxadiazol-5-yl)methoxy]-2,6-difluorobenzenecarboxamide]: the MIC in assay [1] and in assay [2] was 16 to 64 µg/mL (≈ 46.3 to 185 µM) in each case.

Regarding `COc1ccc(-c2nc(COc3ccc(F)c(C(N)=O)c3F)sc2C2CC2)cc1` [Example 286, 3-[5-Cyclopropyl-4-(4-methoxy-phenyl)-thiazol-2-ylmethoxy]-2,6-difluoro-benzamide], the MIC in assay [1] and in assay [2] was < 8 µg/mL in each case.

Consider `NC(=O)c1c(F)ccc(OCc2cc(-c3ccccc3)on2)c1F` [Example 163, 2,6-Difluoro-3-(5-phenyl-isoxazol-3-ylmethoxy)-benzamide], for which the MIC in assay [1] and in assay [2] was < 8 µg/mL throughout.

With `CC(Oc1ccc(F)c(C(N)=O)c1F)c1nc2cc(Cl)ccc2s1` (centres unmarked) [Example 124, 3-[1-(5-Ohloro-benzothiazol-2-yl)-ethoxy]-2,6-difluoro-benzamide], the “Bacillus subtilis MICs Activity” value in assay [1] was “A (‘A’ if the MIC was ≦8 micrograms/ml)”. The “Staphylococcus aureus MICs Activity” value in assay [2] is “A (‘A’ if the MIC was ≦8 micrograms/ml)”.

On to `COc1ccc(-c2nc(COc3ccc(F)c(C(N)=O)c3F)sc2-c2ccccc2O)cc1` [Example 277, 2,6-Difluoro-3-[5-(2-hydroxy-phenyl)-4-(4-methoxy-phenyl)-thiazol-2-ylmethoxy]-benzamide], for which the MIC in assay [1] and in assay [2] was < 8 µg/mL throughout.

The values are drawn from patent US8088791B2, “Antibacterial agents” (Biots Scientific Management Pty Ltd, priority 2006, dated 2012).
